Assay results taken from patent publication US6495580B1, “Compounds, compositions and methods for treating or preventing pneumovirus infection and associated diseases” (ViroPharma Incorporated, priority 1998, dated 2002).
Read-outs that look alike come from different tables or passages of the source.

Legend:
Format in all cases: cell-based
human RSV subtype A = test: Cell culture assay for inhibition of pneumovirus replication (protection from virus-induced cytopathic effect), RSV-A
Method: (§1) The replication of many viruses may be quantitatively assessed in the laboratory in various cell or tissue culture systems. Such in vitro culture methodologies are available and useable by those skilled in the art for the propagation and quantitative measurement of the replication of pneumoviruses. The following procedure was used for the in vitro quantitative measure of RSV replication.
(§2) Using the procedure described in this example, compounds of the present invention were evaluated for their ability to inhibit the replication of the virus in cell culture. By adding compounds at various concentrations to the culture medium, a dose response effect of the compound on virus replication was determined. A useful quantitative measure of the inhibition of RSV replication in this assay is the concentration of the compound at which virus replication in cell culture is inhibited by 50% in comparison to that observed in the absence of the compound (50% Inhibitory Concentration, IC50). In the case of RSV, IC50 values are defined as the concentration of compound that protected 50% of the cell monolayer. from virus-induced cytopathic effect (syncytia formation).
(§3) Anti-pneumovirus compounds of the invention were screened for antiviral activity against RSV (strain Long) on cultured HEp2 cells. Standard 96-well culture plates were seeded with 4×10^4 HEp2 cells in 200 μL of Minimal Essential Medium with Earles salts (EMEM) supplemented with 10% fetal bovine serum (FBS). Twenty-four to 30 hours later, the cells were infected with a dilution of RSV in Medium 199 (GIBCO/BRL) with 5% FBS that had been titrated to yield>85% destruction of the cell monolayer in 60 hours. After 1 hour at […], compounds were added to wells of the plate in a final DMSO concentration of 0.5% as a series of 10 two-fold dilutions of the compound. Virus control wells (VC, no test compound) and cell culture control wells (CC, no virus, no test compound) were also included on each plate. Plates were incubated in a humidified atmosphere at 37° C. and 5% carbon dioxide. After 60 hours, 100 μL of a 5% solution of glutaraldehyde in water was added to each well, and the wells were incubated at room temperature for 1 hour. The fixative was removed, and the cells were stained with a 0.1% solution of crystal violet in water for 15-30 minutes. After rinsing and drying the plates, the optical density of the wells was measured at 570 nm (OD570).
(§4) To determine IC50 values for the test compounds,the mean value of the OD570 readings of the virus control wells (VC) on a plate was substracted from the OD570 readings of all wells on that plate. The IC50 values were then calculated according to the following formula:
(§5) IC50=[(Y—B)/(A—B)]×(H—L)+L
(§6) where Y represents the mean OD570 reading of the cell control wells (CC) divided by 2; B represents the mean OD570 reading of wells of the compound dilution nearest to and below Y; A represents the mean OD570 reading of wells of the compound dilution nearest to and above Y; L represents the compound concentration at B; and H represents the compound concentration at A.
(§7) A similar assay is useful for various strains of human RSV, including subtype A and subtype B viruses, as well as other pneumoviruses.

human RSV subtype B = test: Cell culture assay for inhibition of pneumovirus replication, RSV-B; details: protection from cytopathic effect
Method: as §1, §2, §3, §4, §5, §6, §7

bovine RSV = test: Cell culture assay for inhibition of pneumovirus replication, BRSV; details: protection from cytopathic effect
Method: as §1, §2, §3, §4, §5, §6, §7

normal cells = test: MTT cytotoxicity assay; details: highest compound concentration giving optical density ≧75% of control, 68 hours incubation
Method: This assay measures cell viability, and therefore cytotoxicity, by quantitatively detecting the in situ reduction of 3-(4,5-dimethylthiazol-2-yl)-2,5-diphenyltetrazolium bromide (MTT) by viable cells. Cells are seeded in 96-well plates in DMEM containing 5% FBS at a density of 4×10^3 cells per well. After incubation for 4 hours at 37° C. and 5% CO2, 2-fold serial dilutions of compound in 1% DMSO (or solvent alone) are added to quadruplicate wells and the plates are incubated for an additional 68 hours at 37° C. and 5% CO2, which is equivalent to 3 to 4 cell doublings. The culture medium is removed, and the cells are treated with 1 mg/ml of MTT in phosphate-buffered saline, pH 7.2 for 4 hours at 37° C. and 5% CO2. After removal of the unreduced MTT, the reduced blue formazan crystals produced by the viable cells are solubilized by the addition of 0.04N HCl in isopropanol. The optical density at 570 nm (OD570) of each well is read using a suitable microplate reader. Cell viability is expressed as the percentage of optical density for compound-treated cells relative to the optical density of solvent alone-treated control wells. The highest compound concentration resulting in an optical density of≧75% of the control is represented as the cellular cytotoxicity value (CC75).

ovine RSV = test: Cell culture assay for inhibition of pneumovirus replication, ORSV; details: protection from cytopathic effect
Method: as §1, §2, §3, §4, §5, §6, §7

goat RSV = test: Cell culture assay for inhibition of pneumovirus replication, GRSV; details: protection from cytopathic effect
Method: as §1, §2
Anti-pneumovirus compounds of the invention were screened for antiviral activity against RSV (strain Long) on cultured HEp2 cells. […] After rinsing and drying the plates, the optical density of the wells was measured at 570 nm (OD570).
To determine IC50 values for the test compounds,the mean value of the OD570 readings of the virus control wells (VC) on a plate was substracted from the OD570 readings of all wells on that plate. The IC50 values were then calculated according to the following formula: […]
as §6, with “A. […]” for “A.”

[1] = Activity against human RSV subtype A (Table 2), values marked 2: protection achieved only 70-90% at highest concentrations tested, read-out: IC50
[2] = human RSV subtype A, concentration protecting 50% of cell monolayer from virus-induced cytopathic effect, HEp2 cells, 60 hours, read-out: IC50 RSV-A
[3] = human respiratory syncytial virus

SMILES	IC50 (human RSV subtype A; [1])	IC50 (human RSV subtype A; [2])	IC50 (human RSV subtype B)	IC50 (bovine RSV)	CC75 (normal cells)	IC50 (human RSV subtype A; human respiratory syncytial virus, HEp-2, human RSV subtype A, concentration protecting 50% of cell monolayer from virus-induced cytopathic effect, HEp2 cells, 60 hours, read-out: IC50 RSV-A)	IC50 (human RSV subtype A; human respiratory syncytial virus, Activity against human RSV subtype A (Table 2), values marked 2: protection achieved only 70-90% at highest concentrations tested, read-out: IC50)	IC50 (human RSV subtype B; [3])	IC50 (bovine RSV; Bovine orthopneumovirus)	IC50 (ovine RSV; [3])	IC50 (goat RSV)	IC50 (ovine RSV)
Nc1nnnn1N=Cc1ccc(O)c(Cc2cc(C=Nn3nnnc3N)ccc2O)c1 [Example 8]	0.37 µM	0.37 µM	47.3 µM	16.2 µM	9.4 µM							
Nc1nnnn1N=Cc1ccc(C(c2ccccc2)c2ccc(C=Nn3nnnc3N)cc2O)c(O)c1 (stereo not drawn) [Example 7, 5,5′-Bis[1-(((5-amino-1H-tetrazolyl)imino)methyl)]-2,2′-benzylidenebisphenol]	0.001 µM	0.001 µM			>6.3 µM							
NC(=O)c1ncn([C@@H]2O[C@H](CO)[C@@H](O)[C@H]2O)n1 [Ribavirin, 1-beta-D-ribofuranosyl-1H-1,2,4-triazole-3-carboxamide, reference compound]					9.4 µM	24.3 µM	24.3 µM	17.7 µM	7.5 µM	15.5 µM	3.3 µM	
COc1ccc(C(c2ccc(C=Nn3nnnc3N)cc2O)c2ccc(C=Nn3nnnc3N)cc2O)cc1 (stereo not drawn) [Example 2, 5,5′-Bis[1-(((5-amino-1H-tetrazolyl)imino)methyl)]-4″-methoxyphenyl-2,2′-benzylidenebisphenol]	0.001 µM	0.001 µM	0.008 µM	0.001 µM	>150 µM							
Nc1ncnn1N=Cc1ccc(O)c(C(c2ccc(O)cc2)c2cc(C=Nn3ncnc3N)ccc2O)c1 (stereo not drawn) [Example 3, 5,5′-Bis[1-(((5-amino-1H-1,2,4 triazolyl)imino)methyl)]-2,2′, 4″t-methylidyne trisphenol]	0.05 µM	0.05 µM	0.46 µM	0.01 µM	12.5 µM							0.17 µM
Nc1nnn(N=Cc2ccc(C(c3ccc(O)cc3)c3ccc(C=Nn4nnc(N)n4)cc3O)c(O)c2)n1 (stereo not drawn) [Example 5, 5,5′-Bis[2-(((5-amino-2H-tetrazolyl)imino)methyl)]-2,2′,4″-methylidynetrisphenol]	0.09 µM	0.09 µM	1.9 µM	1.7 µM	>50.0 µM							1.2 µM
Nc1nncn1N=Cc1ccc(O)c(C(c2ccc(O)cc2)c2cc(C=Nn3cnnc3N)ccc2O)c1 (stereo not drawn) [Example 4, 5,5′-Bis[4-(((3-amino-4H-1,2,4-triazolyl)imino)methyl)]-2,2′,4″-methylidyne trisphenol]	0.11 µM	0.11 µM	0.15 µM	0.27 µM	18.8 µM							
Cc1nnnn1/N=C/c1ccc(O)c(C(c2ccc(O)cc2)c2cc(/C=N/n3nnnc3C)ccc2O)c1 [Example 6, 5,5′-Bis[1-(((5-methyl-1H-tetrazolyl)imino)methyl)]-2,2′,4″-methylidynetrisphenol]	0.001 µM	0.001 µM	0.002 µM	0.001 µM	3.1 µM						0.001 µM	0.001 µM
Nc1nnnn1N=Cc1ccc(O)c(C(c2ccc(O)cc2)c2cc(C=Nn3nnnc3N)ccc2O)c1 (stereo not drawn) [Example 1, 5,5′-Bis[1-(((5-amino-1H-tetrazolyl)imino)methyl)]2,2′,4″-methylidynetrisphenol]	0.001 µM	0.001 µM	0.008 µM	0.003 µM	>12.5 µM						0.001 µM	0.002 µM
